# Measurements as given in patent publication US20260068882A1, “ARTHROPOD CONTROLLING COMPOSITION” (Firmenich SA, priority 2019, published 2026).
# Where two headings read alike, the source gives them in different places.
# Assays:
# Aedes aegypti = test: In vitro Warm Body assay, mosquitoes landing on treated warm body; type: in vivo
# Procedure: (§1) The arthropod controlling effect according to the present invention is determined on mosquitoes using an adapted Warm Body assay as defined in Kröber T, Kessler S, Frei J, Bourquin M, Guerin P M. An in vitro assay for testing mosquito controlling compounds employing a warm body and carbon dioxide as a behavioral activator. J Am Mosq Control Assoc. 2010; 26:381-386.
# (§2) The controlling effect according to the present invention is determined by testing the Warm Body assay against the yellow fever mosquito, Aedes aegypti Rockefeller strain. […] Observations of controlling efficacy were made on host-seeking females of uniform age, 5 to 10 days old selected as mentioned in the publication mentioned hereinabove. Tested hungry females had access to 10% sugar solution but were not blood-fed.
# (§3) The published protocol has been adapted in not manually counting the landing mosquitoes but automatically using an automatic counting software, the switch from Anopheles gambiae to A. aegypti led to a decrease of mosquitoes' number placed in the tested cage due to the size difference (i.e. 30 mosquitoes instead of 50) and to an increase of lighting as A. aegypti is a diurnal mosquitoes (i.e. 150 lux instead of 4 lux).
# as §2, with “A.” for “Aedes”
# as §1, with “The” for “The arthropod”, “was assessed” for “is determined on mosquitoes”
# as §3, with “Aedes” for “A.”
# In this in-vitro assay the number of A. aegypti landing on a warm body treated with the tested stimuli was measured in order to assess the repellency effect. Three replicates were carried on the three different doses: 0.0016%, 0.04% and 1% in ethanol, using 25 A. aegypti 10-12 days old females per cage.
# In this in-vitro assay, the number of Aedes aegypti landing on a warm body treated with the tested stimuli was measured in order to assess the repellency effect. Three replicates were carried on the three different doses: 0.0016%, 0.04% and 1% in ethanol.
# In this in-vitro assay, the number of Aedes aegypti landing on a warm body treated with the tested stimuli was measured in order to assess the repellency effect. One replicate was carried at different doses ranging from 0.0016% up to 1% in ethanol.
# Ixodes ricinus = test: In vitro Warm Plate Assay for ticks; type: in vivo; conditions: for pest or weed control at 0.00032 % / pest or weed control at 0.0016 % / pest or weed control at 0.008 % / pest or weed control at 0.04 % / pest or weed control at 0.2 % / pest or weed control at 1 %: Ixodes ricinus, read-out: percentage of ticks affected on the Warm Plate; for pest or weed control at 0.00032 %: 0.00032% (Table 10); for pest or weed control at 0.008 %: 0.008% (Table 10); for pest or weed control at 0.2 %: 0.2% (Table 10)
# Procedure: Repellent efficacy of the different compounds was assessed against the sheep tick, Ixodes ricinus. I. ricinus is one of the recommended model organisms mentioned by the Guidance on the European Biological Products Regulation [Vol II, Efficacy-Assessment & Evaluation (Parts B+C), v. 3.0, April 2018]. Observations of repellent efficacy were made on last stage nymphs.
# The repellent efficacy was assessed using the protocol of the in-vitro Warm Plate Assay as defined in Kröber T, Bourquin M, Guerin P M. A standardized in vivo and in vitro test method for evaluating tick repellents. Pesticide Biochemistry and Physiology. 2013; 107 (2): 160-168.].
# The mean±SD number of ticks Ixodes ricinus walking down (affected), falling (affected) or walking-up (non affected) from the warm plate treated with ethanol, N,N-diethyl-3-methylbenzamide, (2,5-dimethyl-2,3-dihydro-1H-inden-2yl)methanol (Ingredient 2) or (2,4,6-trimethyl-2,3-dihydro-1H-inden-2-yl)methanol (Ingredient 1) diluted in ethanol at 0.4 mg/ml and 10 mg/mL was assessed on n groups of 12 ticks (n=2-5).
# In this in-vitro assay, the percentage of ticks Ixodes ricinus affected by the stimulus loaded on the warm plate was measured in order to assess the repellency effect. Twelve ticks were assessed per concentrations that goes from 0.0016% up to 1% in ethanol.
# Using the same in-vitro setup, the effect on ticks behavior (n≥12) of different stimuli diluted in ethanol at 20% (w/w) was assessed overtime.
molecule,measurement,setting,value
"CC1OC(C)C2Cc3ccccc3C2O1 (stereo not drawn) [(+)-2,4-dimethyl-4,4a,5,9b-tetrahydroindeno[1,2-d][1,3]dioxine + (−)-2,4-dimethyl-4,4a,5,9b-tetrahydroindeno[1,2-d][1,3]dioxine]",number of mosquitoes landed on the Warm Body,Aedes aegypti; 0.0016% in ethanol (Table 6),58
same,number of mosquitoes landed on the Warm Body,Aedes aegypti; 0.04% in ethanol (Table 6),37
same,number of mosquitoes landed on the Warm Body,Aedes aegypti; 1% in ethanol (Table 6),3
"(2RS,4aSR,9bRS)-2-ethyl-4,4a,5,9b-tetrahydroindeno[1,2-d][1,3]dioxine + (2RS,4aRS,9bSR)-2-ethyl-4,4a,5,9b-tetrahydroindeno[1,2-d][1,3]dioxine",number of mosquitoes landed on the Warm Body,Aedes aegypti; 0.0016% in ethanol (Table 6),43
same,number of mosquitoes landed on the Warm Body,Aedes aegypti; 0.04% in ethanol (Table 6),6
same,number of mosquitoes landed on the Warm Body,Aedes aegypti; 1% in ethanol (Table 6),5
"(1RS,2RS)-2-((2-methoxypropan-2-yloxy)methyl)-2,6-dimethyl-2,3-dihydro-1H-inden-1-ol+(1RS,2SR)-2-((2-methoxypropan-2-yloxy)methyl)-2,6-dimethyl-2,3-dihydro-1H-inden-1-ol",repellent effect with increasing amount of stimuli (in words),"Aedes aegypti; 0.0016%, 0.04% and 1% in ethanol (FIG. 10)",significant lower repellent effect than DEET or IR3535
"CC1OC(C)C2Cc3ccccc3C2O1 (stereo not drawn) [ingredient #5, 2,4-dimethyl-4,4a,5,9b-tetrahydroindeno[1,2-d][1,3]dioxine]",percentage of ticks being affected,Ixodes ricinus; 0.00032% (Table 9),0%
same,percentage of ticks being affected,Ixodes ricinus; 0.00071% (Table 9),0%
same,percentage of ticks being affected,Ixodes ricinus; 0.0016% (Table 9),17%
same,percentage of ticks being affected,Ixodes ricinus; 0.00357% (Table 9),0%
same,percentage of ticks being affected,Ixodes ricinus; 0.0053% (Table 9),0%
same,percentage of ticks being affected,Ixodes ricinus; 0.008% (Table 9),0%
same,percentage of ticks being affected,Ixodes ricinus; 0.0119% (Table 9),0%
same,percentage of ticks being affected,Ixodes ricinus; 0.0178% (Table 9),8%
same,percentage of ticks being affected,Ixodes ricinus; 0.0267% (Table 9),0%
same,percentage of ticks being affected,Ixodes ricinus; 0.04% (Table 9),15%
same,percentage of ticks being affected,Ixodes ricinus; 0.0598% (Table 9),0%
same,percentage of ticks being affected,Ixodes ricinus; 0.089% (Table 9),7%
same,percentage of ticks being affected,Ixodes ricinus; 0.2% (Table 9),38%
same,percentage of ticks being affected,Ixodes ricinus; 0.447% (Table 9),71%
same,percentage of ticks being affected,Ixodes ricinus; 1% (Table 9),62%
"C[C@H]1O[C@@H]2c3ccccc3C[C@@H]2[C@@H](C)O1 (racemic) [(2RS,4RS,4ARS,9BSR)-2,4-dimethyl-4,4a,5,9b-tetrahydroindeno[1,2-d][1,3]dioxine]",number of mosquitoes landed on the Warm Body,Aedes aegypti; 0.0016% in ethanol (Table 6),17
same,number of mosquitoes landed on the Warm Body,Aedes aegypti; 0.04% in ethanol (Table 6),13
"CC1(C)OC[C@@]2(C)Cc3ccccc3[C@H]2O1 (racemic) [(4aRS,9bRS)-2,2,4a-trimethyl-4,4a,5,9b-tetrahydroindeno[1,2-d][1,3]dioxine]",number of mosquitoes landed on the Warm Body,Aedes aegypti; 0.0016% in ethanol (Table 6),42
same,number of mosquitoes landed on the Warm Body,Aedes aegypti; 0.04% in ethanol (Table 6),47
same,number of mosquitoes landed on the Warm Body,Aedes aegypti; 1% in ethanol (Table 6),2
"C[C@@H]1O[C@H](C)[C@@H]2Cc3ccccc3[C@@H]2O1 (racemic) [(2RS,4RS,4ASR,9BRS)-2,4-dimethyl-4,4a,5,9b-tetrahydroindeno[1,2-d][1,3]dioxine]",number of mosquitoes landed on the Warm Body,Aedes aegypti; 0.0016% in ethanol (Table 6),11
same,number of mosquitoes landed on the Warm Body,Aedes aegypti; 0.04% in ethanol (Table 6),6
same,number of mosquitoes landed on the Warm Body,Aedes aegypti; 1% in ethanol (Table 6),2
"COC(C)OCC1(C)Cc2ccc(C)cc2C1 (stereo not drawn) [2-[(1-methoxyethoxy)methyl]-2,5-dimethylindane]",pest or weed control at 0.00032 %,Ixodes ricinus,8%
same,pest or weed control at 0.0016 %,Ixodes ricinus; 0.0016% (Table 10),0%
same,pest or weed control at 0.008 %,Ixodes ricinus,21%
same,pest or weed control at 0.04 %,Ixodes ricinus; 0.04% (Table 10),33%
same,pest or weed control at 0.2 %,Ixodes ricinus,64%
same,pest or weed control at 1 %,Ixodes ricinus; 1% (Table 10),100%
"CC(=O)OCC1(C)Cc2ccccc2C1 [(2-methyl-2,3-dihydro-1H-inden-2-yl)methyl acetate]",pest or weed control at 0.04 %,Ixodes ricinus; 0.04% (Table 10),25%
same,pest or weed control at 0.2 %,Ixodes ricinus,58%
same,pest or weed control at 1 %,Ixodes ricinus; 1% (Table 10),100%
"(2RS,4aSR,9bRS)-2,8-dimethyl-4,4a,5,9b-tetrahydroindeno[1,2-d][1,3]dioxine + 2RS,4aRS,9bSR)-2,8-dimethyl-4,4a,5,9b-tetrahydroindeno[1,2-d][1,3]dioxine",number of mosquitoes landed on the Warm Body,Aedes aegypti; 0.0016% in ethanol (Table 6),38
same,number of mosquitoes landed on the Warm Body,Aedes aegypti; 0.04% in ethanol (Table 6),14
same,number of mosquitoes landed on the Warm Body,Aedes aegypti; 1% in ethanol (Table 6),4
"C[C@@H]1OC[C@]2(C)Cc3ccccc3[C@@H]2O1 (racemic) [(2RS,4aSR,9bSR)-2,4a-dimethyl-4,4a,5,9b-tetrahydroindeno[1,2-d][1,3]dioxin]",number of mosquitoes landed on the Warm Body,Aedes aegypti; 0.0016% in ethanol (Table 6),34
same,number of mosquitoes landed on the Warm Body,Aedes aegypti; 0.04% in ethanol (Table 6),18
same,number of mosquitoes landed on the Warm Body,Aedes aegypti; 1% in ethanol (Table 6),6
"(2RS,4aRS,9bSR)-2-ethyl-8-methyl-4,4a,5,9b-tetrahydroindeno[1,2-d][1,3]dioxin + (2RS,4aSR,9bRS)-2-ethyl-8-methyl-4,4a,5,9b-tetrahydroindeno[1,2-d][1,3]dioxin",number of mosquitoes landed on the Warm Body,Aedes aegypti; 0.0016% in ethanol (Table 6),45
same,number of mosquitoes landed on the Warm Body,Aedes aegypti; 0.04% in ethanol (Table 6),24
same,number of mosquitoes landed on the Warm Body,Aedes aegypti; 1% in ethanol (Table 6),10
"Cc1cc2c(cc1C)CC(C)(CO)C2 [(2,5,6-trimethyl-2,3-dihydro-1H-inden-2-yl)methanol]",pest or weed control at 0.0016 %,Ixodes ricinus; 0.0016% (Table 11),17%
same,pest or weed control at 0.04 %,Ixodes ricinus; 0.04% (Table 11),38%
same,pest or weed control at 1 %,Ixodes ricinus; 1% (Table 11),77%
"Cc1ccc2c(c1)C[C@]1(C)COC(C)(C)O[C@H]21 (racemic) [(4aRS,9bRS)-2,2,4a,7-tetramethyl-4,4a,5,9b-tetrahydroindeno[1,2-d][1,3]dioxine]",number of mosquitoes landed on the Warm Body,Aedes aegypti; 0.0016% in ethanol (Table 6),51
same,number of mosquitoes landed on the Warm Body,Aedes aegypti; 0.04% in ethanol (Table 6),44
same,number of mosquitoes landed on the Warm Body,Aedes aegypti; 1% in ethanol (Table 6),8
"Cc1ccc2c(c1)[C@H]1OC(C)(C)OC[C@@]1(C)C2 (racemic) [(4aRS,9bRS)-2,2,4a,8-tetramethyl-4,4a,5,9b-tetrahydroindeno[1,2-d][1,3]dioxine]",number of mosquitoes landed on the Warm Body,Aedes aegypti; 0.0016% in ethanol (Table 6),59
same,number of mosquitoes landed on the Warm Body,Aedes aegypti; 0.04% in ethanol (Table 6),12
same,number of mosquitoes landed on the Warm Body,Aedes aegypti; 1% in ethanol (Table 6),11
"(2,5-dimethyl-2-indanyl)methyl formate)methanol",percentage of ticks affected on the Warm Plate,Ixodes ricinus; 0.0016% (Table 11),0%
same,percentage of ticks affected on the Warm Plate,Ixodes ricinus; 0.04% (Table 11),15%
same,percentage of ticks affected on the Warm Plate,Ixodes ricinus; 1% (Table 11),100%
"COC(=O)C1(C)Cc2ccc(C)cc2C1 (racemic) [(+−)-methyl 2,5-dimethyl-2,3-dihydro-1H-indene-2-carboxylate]",pest or weed control at 0.0016 %,Ixodes ricinus; 0.0016% (Table 11),7%
same,pest or weed control at 0.04 %,Ixodes ricinus; 0.04% (Table 11),18%
same,pest or weed control at 1 %,Ixodes ricinus; 1% (Table 11),100%
"CC(C)(C)c1ccc2c(c1)CC1(COC1)C2 [5-(tert-butyl)-1,3-dihydrospiro[indene-2,3′-oxetane]]",pest or weed control at 0.0016 %,Ixodes ricinus; 0.0016% (Table 11),0%
same,pest or weed control at 0.04 %,Ixodes ricinus; 0.04% (Table 11),17%
same,pest or weed control at 1 %,Ixodes ricinus; 1% (Table 11),86%
"COCOCC1(C)Cc2ccc(C)cc2C1 (stereo not drawn) [2-((methoxymethoxy)methyl)-2,5-dimethyl-2,3-dihydro-1H-indene]",pest or weed control at 0.00032 %,Ixodes ricinus,0%
same,pest or weed control at 0.0016 %,Ixodes ricinus; 0.0016% (Table 10),17%
same,pest or weed control at 0.008 %,Ixodes ricinus,0%
same,pest or weed control at 0.04 %,Ixodes ricinus; 0.04% (Table 10),33%
same,pest or weed control at 0.2 %,Ixodes ricinus,54%
same,pest or weed control at 1 %,Ixodes ricinus; 1% (Table 10),100%
